In patent publication US10898613B2, “Hyaluronic acid gel with a divalent zinc cation” (Nestlé Skin Health SA, priority 2016, dated 2021):

Experiments:
[1] = Zinc release from gels, USP-paddle apparatus with gel containers, Zn content by ICP; format: physicochemical; details: zinc released from HA gels of Example 4 with 1 mM zinc salt; 600 ml release medium, 30 rpm, 37° C.
Method: The zinc release from the gels was measured by the USP-paddle apparatus using special gel containers in which the gel was placed. A gel containing 1 mM ZnCl2 was manufactured according to Example 1. The gel was filled into 7 gel containers with a fixed volume of 1 ml. The geometry of the filled gel was a cylinder […] in diameter and 3 mm deep. The gels were covered by a mesh-size plastic net (PA80 m=200 mesh, AB Derma) and a coarse stainless steel net, care was taken to assure that no air was trapped between the gel and the plastic net.
Each gel container was immersed in 600 ml thermostated release medium, stirred at 30 rpm and maintained at 37° C. using a Distek Evolution 6100 (North Brunswick, N.J.). At predetermined time points, gel containers were removed and the Zn content in the container was determined using ICP.
Gels prepared according to example 4 containing zinc chloride (1 mM), zinc gluconate (1 mM) and zinc citrate (1 mM) respectively were analyzed as described in Example 7.

[2] = Rheology (elastic modulus G′ within the LVR) of HA gel formulations after autoclaving; format: physicochemical; details: after autoclaving (F0~19); 1 mM Zn salt, HA 20 mg/mL
Method: The rheological properties of the formulations were analyzed using an Ahres G2 reometer (measure system PP 40, gap 1.00 mm). Initially a strain sweep was made to find the linear viscoelastic region (LVR) and then the viscoelastic properties were measured within the LVR.

Row | Compound | time for 25% released [1] [h] | Effect of Zn on G′ of the gel versus reference swelled in buffer only [2]
1 | O=C([O-])CC(O)(CC(=O)[O-])C(=O)[O-].O=C([O-])CC(O)(CC(=O)[O-])C(=O)[O-].[Zn+2].[Zn+2].[Zn+2] [zinc citrate] | ~3 | stabilizing effect
2 | [Cl-].[Cl-].[Zn+2] [zinc chloride] | ~75 | stabilizing effect
3 | zinc gluconate | ~24 | stabilizing effect
